# Assay results published in ChEMBL document CHEMBL3879881, “Substituted pyrazolyl compounds for the treatment of inflammation” (2005).
# Molecular target: T1, Inhibitor of nuclear factor kappa-B kinase subunit beta (Homo sapiens, UniProt O14920)
# T1 sequence (O14920 whole entry): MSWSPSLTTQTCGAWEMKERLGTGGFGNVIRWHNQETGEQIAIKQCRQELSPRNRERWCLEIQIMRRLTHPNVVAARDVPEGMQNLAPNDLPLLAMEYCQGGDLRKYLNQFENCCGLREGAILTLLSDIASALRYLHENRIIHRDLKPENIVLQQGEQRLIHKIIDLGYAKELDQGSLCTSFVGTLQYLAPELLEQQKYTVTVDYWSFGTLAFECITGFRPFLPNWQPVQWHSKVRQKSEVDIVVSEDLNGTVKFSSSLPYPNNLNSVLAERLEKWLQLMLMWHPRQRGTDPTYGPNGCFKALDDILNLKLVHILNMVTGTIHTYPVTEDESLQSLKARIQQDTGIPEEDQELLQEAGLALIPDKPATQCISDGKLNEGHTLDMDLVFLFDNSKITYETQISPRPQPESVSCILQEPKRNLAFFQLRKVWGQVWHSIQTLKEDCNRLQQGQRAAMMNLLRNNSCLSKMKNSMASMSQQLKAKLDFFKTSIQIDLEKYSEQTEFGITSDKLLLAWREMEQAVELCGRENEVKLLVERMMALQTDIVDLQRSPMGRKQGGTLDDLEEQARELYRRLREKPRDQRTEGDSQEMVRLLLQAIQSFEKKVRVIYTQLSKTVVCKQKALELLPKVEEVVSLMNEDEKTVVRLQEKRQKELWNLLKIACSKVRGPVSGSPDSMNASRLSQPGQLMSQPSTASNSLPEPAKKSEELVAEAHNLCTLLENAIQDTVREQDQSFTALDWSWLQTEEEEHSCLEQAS
# Experiment: Inhibition of human recombinant C-terminal FLAG-epitope-tagged IKK2 expressed in baculovirus using biotinylated IkappaBalpha peptide as substrate assessed as decrease in [gamma-33P]-ATP incorporation in substrate after 30 mins by scintillation counting method
row,Compound,IC50
1,CSc1ccccc1C(=O)Nc1ccc2c(c1)-c1c(c(C(N)=O)nn1-c1ccc(S(C)(=O)=O)cc1)CC2,1000 to 10000 nM
2,NC(=O)c1nn(-c2ccc(C(=O)O)cc2)c2c1CCc1ccc(NC(=O)c3ccccc3Cl)cc1-2,1000 to 10000 nM
3,COc1cccc(CC(=O)Nc2ccc3c(c2)-c2c(c(C(N)=O)nn2-c2ccc(S(N)(=O)=O)cc2)CC3)c1,1000 to 10000 nM
4,CS(=O)(=O)c1ccc(-n2nc(C(N)=O)c3c2-c2cc(NC(=O)c4cc(S(C)(=O)=O)ccc4Cl)ccc2CC3)cc1,≤ 1000 nM
5,CCCCS(=O)(=O)Nc1ccc2c(c1)-c1c(c(C(N)=O)nn1-c1ccc(S(N)(=O)=O)cc1)CC2,1000 to 10000 nM
6,NC(=O)c1nn(-c2ccc(-c3cccc(C(=O)O)c3)cc2)c2c1CCc1ccc(NC(=O)c3ccccc3Cl)cc1-2,1000 to 10000 nM
7,NC(=O)c1nn(-c2cccnc2)c2c1CCc1ccc(NC(=O)c3ccccc3Cl)cc1-2,1000 to 10000 nM
8,CC1(C)OCC(COc2ccc(-n3nc(C(N)=O)c4c3-c3cc(NC(=O)c5ccccc5Cl)ccc3CC4)cc2)O1 (centres undefined),≤ 1000 nM
9,NC(=O)c1nn(-c2ccc(S(N)(=O)=O)cc2)c2c1CCc1ccc(NC(=O)c3ccco3)cc1-2,10000 to 100000 nM
10,NC(=O)c1nn(-c2cccc(F)c2)c2c1CCc1ccc(NC(=O)c3cccc(Cl)c3F)cc1-2,1000 to 10000 nM
11,NC(=O)c1nn(-c2ccncc2)c2c1CCc1ccc(NC(=O)c3cc(Cl)ncc3Cl)cc1-2,≤ 1000 nM
12,NC(=O)c1nn(-c2cc(F)cc(F)c2)c2c1CCc1ccc(NC(=O)c3ccccc3Cl)cc1-2,≤ 1000 nM
13,NC(=O)c1nn(-c2ccc(S(N)(=O)=O)cc2)c2c1CCc1ccc(NS(=O)(=O)c3ccccc3)cc1-2,1000 to 10000 nM
14,CS(=O)(=O)c1ccc(-n2nc(C(N)=O)c3c2-c2cc(NC(=O)c4cc(Cl)ccc4N)ccc2CC3)cc1,1000 to 10000 nM
15,Cc1cccc(-n2nc(C(N)=O)c3c2-c2cc(NC(=O)c4ccccc4Cl)ccc2CC3)c1,≤ 1000 nM
16,CCS(=O)(=O)c1ccc(-n2nc(C(N)=O)c3c2-c2cc(NS(C)(=O)=O)ccc2CC3)cc1,1000 to 10000 nM
17,NC(=O)c1nn(-c2ccc(S(N)(=O)=O)cc2)c2c1CCc1ccc(NS(=O)(=O)c3cccc(Br)c3)cc1-2,1000 to 10000 nM
18,CS(=O)(=O)c1ccc(-n2nc(C(N)=O)c3c2-c2cc(NC(=O)c4cc(Cl)ncc4Cl)ccc2CC3)cc1,≤ 1000 nM
19,NC(=O)c1nn(-c2ccc(O)cc2)c2c1CCc1ccc(NC(=O)c3cc([N+](=O)[O-])ccc3Cl)cc1-2,≤ 1000 nM
20,CN(C)S(=O)(=O)c1ccc(-n2nc(C(N)=O)c3c2-c2cc(NC(=O)c4cccc(Cl)c4)ccc2CC3)cc1,1000 to 10000 nM

row,Compound,IC50
1,CS(=O)(=O)c1ccc(-n2nc(C(N)=O)c3c2-c2cc(NC(=O)Cc4ccccc4)ccc2CC3)cc1,1000 to 10000 nM
2,NC(=O)c1nn(-c2ccc3c(c2)OCO3)c2c1CCc1ccc(NC(=O)CN3CCCC3)cc1-2,1000 to 10000 nM
3,Cc1cccc(S(=O)(=O)Nc2ccc3c(c2)-c2c(c(C(N)=O)nn2-c2ccc(S(N)(=O)=O)cc2)CC3)c1,10000 to 100000 nM
4,CCCS(=O)(=O)c1ccc(-n2nc(C(N)=O)c3c2-c2cc(NS(C)(=O)=O)ccc2CC3)cc1,1000 to 10000 nM
5,NC(=O)c1nn(-c2ccc(S(N)(=O)=O)cc2)c2c1CCc1ccc(NC(=O)c3cccs3)cc1-2,10000 to 100000 nM
6,NC(=O)c1nn(-c2ccc(NC(=O)c3ccccc3)cc2)c2c1CCc1ccc(NC(=O)c3ccccc3Cl)cc1-2,1000 to 10000 nM
7,CN(C)C(=O)/C=C/c1ccc(-n2nc(C(N)=O)c3c2-c2cc(NS(C)(=O)=O)ccc2CC3)cc1,1000 to 10000 nM
8,CS(=O)(=O)c1ccc(-n2nc(C(N)=O)c3c2-c2cc(NC(=O)c4ccccc4N)ccc2CC3)cc1,1000 to 10000 nM
9,COc1cccc(C(=O)Nc2ccc3c(c2)-c2c(c(C(N)=O)nn2-c2ccc(S(C)(=O)=O)cc2)CC3)c1,1000 to 10000 nM
10,CC1(C)OCC(COc2ccc(-n3nc(C(N)=O)c4c3-c3cc(NC(=O)c5ccc(S(C)(=O)=O)cc5Cl)ccc3CC4)cc2)O1 (centres undefined),1000 to 10000 nM
11,CN(C)CCCOc1ccc(-n2nc(C(N)=O)c3c2-c2cc(NC(=O)c4ccccc4Cl)ccc2CC3)cc1,1000 to 10000 nM
12,CN1CCN(c2ncc(Cl)c(C(=O)Nc3ccc4c(c3)-c3c(c(C(N)=O)nn3-c3ccc5c(c3)OCO5)CC4)n2)CC1,≤ 1000 nM
13,NC(=O)c1nn(-c2ccc(S(N)(=O)=O)cc2)c2c1CCc1ccc(NS(=O)(=O)c3cccc(Cl)c3)cc1-2,1000 to 10000 nM
14,NC(=O)c1nn(-c2cc(F)c(N)cc2F)c2c1CCc1ccc(NC(=O)c3ccncc3Cl)cc1-2,≤ 1000 nM
15,CN(C)C/C=C/c1ccc(-n2nc(C(N)=O)c3c2-c2cc(NC(=O)c4ccccc4Cl)ccc2CC3)cc1,1000 to 10000 nM
16,NC(=O)c1nn(-c2ccc(F)cc2)c2c1CCc1ccc(NC(=O)c3cc4c(cc3Cl)OCO4)cc1-2,≤ 1000 nM
17,CN1CCN(c2cc(C(=O)Nc3ccc4c(c3)-c3c(c(C(N)=O)nn3-c3ccncc3)CC4)c(Cl)cn2)CC1,≤ 1000 nM
18,CC(=O)Nc1nc(C)c(S(=O)(=O)Nc2ccc3c(c2)-c2c(c(C(N)=O)nn2-c2ccc(S(N)(=O)=O)cc2)CC3)s1,1000 to 10000 nM
19,CN1CCCN(c2cc(C(=O)Nc3ccc4c(c3)-c3c(c(C(N)=O)nn3-c3ccc(F)cc3)CC4)c(Cl)cn2)CC1,≤ 1000 nM
